Experimental data published in patent publication US20250305004A1, “ENHANCING GENE TARGETING EFFICIENCY IN HUMAN CELLS WITH DNA-PK INHIBITOR TREATMENT” (The Board of Trustees of the Leland Stanford Junior …, priority 2022, published 2025).
“Also recorded” adds a separate entry of the source.

How the values were obtained:
[1] = system: LT-HSC and MPP populations; assay: Gene targeting at CCR5 locus in FACS sorted LT-HSC and MPP; format: cell-based, human; conditions: flow cytometry for GFP; 0.5 μM
HBB locus in HSPCs = assay: Editing of SCD mutation at HBB locus in HSPCs (AAV6 or ssODN donor); format: cell-based, human
Excerpt: ICE analysis for quantification of gene editing.
CD34+ HSPC culture and genome editing.

HSPCs [2] = conditions: 72 h post-gene targeting at CCR5, HBA1 and HBB loci; 0.5 μM
Experimental: Cell viability measurement. MTT assay was used for measuring the gene edited PSC viability. […] After this incubation, MTT was removed, and cells were lysed using 100 μl of lysis buffer (0.1N HCl and 0.5% SDS in isopropanol). After lysis, absorbance was measured at 570 nm with 650 nm as the reference using a SpectraMax M3 plate reader (Molecular devices). The absorbance values were used to calculate the cell viability of gene edited cells as a percentage relative to the mock cells. […] Viable cell counts were represented as percentage relative to the mock or untreated cells as indicated.

HSPCs [3] = assay: Colony forming units (CFU) assay and genotyping of CCR5 gene targeted HSPCs; format: cell-based, human; conditions: for colonies with bi-allelic HDR knock-in: untreated 9%
Experimental: Colony forming units assay and genotyping of clones. For colony forming units (CFU) assay, 250 to 500 HSPCs were plated in SmartDish 6-well plates ([…] Technologies, cat: 27370) containing MethoCult H4434 Classic ([…] Technologies, cat: 04444). After 14 days, colonies were counted and scored using STEMvision automated counter ([…] Technologies) to determine the number of BFU-E, CFU-M, CFU-GM, and CFU-GEMM colonies. To determine the ratio of monoallelic vs biallelic integration, individual colonies of each type were picked and genomic DNA was extracted with QE. ddPCR was used to determine the clones with mono- vs bi-allelic integration as mentioned. WT and INDEL frequencies in the clones were determined using ICE analysis.

PI3K family of kinases = assay: Western blot, phosphorylation of AKT (Ser473) by PI3K family kinases in PSC; format: cell-based, human; conditions: 2 h
HBA1 locus in PSCs = assay: RNP/AAV6 gene targeting / gene replacement at HBA1 locus in PSCs; format: cell-based, human; conditions: 0.5 μM
Experimental: Gene targeting efficiency was measured by droplet digital PCR (ddPCR) and flow cytometry (for GFP) to measure the allelic targeting efficiency (FIG. 2B) and percentage of targeted cells (FIG. 2C) respectively. […] The treatment was carried out for 24 hours post gene targeting and the efficiency was calculated 1 week post gene targeting using ddPCR analysis.
First, we tested the treatment for editing the sickle cell disease (SCD) and cystic fibrosis (CF) mutations at HBB and CFTR loci respectively using the previously described Cas9 RNP and AAV6 donor reagents in WT PSC^71-73 (FIG. 19a-d).
PSC culture and genome editing. […] For each nucleofection, RNP complex was prepared with 5 μg of Cas9 protein and 2 μg of gRNA and incubated for 15 mins at room temperature. PSCs were dissociated into single cells using Accutase (Innovative Cell Technologies, cat: AT104). […] Resuspended cells were added to one well of a 16-well Nucleocuvette Strip (Lonza) and nucleofection was performed in the 4D nucleofector (Lonza) using the program, CA137. Nucleofected PSCs were plated in mTeSR1 medium supplemented with 10 μM of Y27632 at a density of 100,000 cells per well in 48-well plate, AAV6 vector and DNA-PKcs inhibitors were added to the medium at indicated concentrations. […] From the following day, PSCs were cultured in mTeSR1 without Y27632. Gene targeting efficiency was analyzed at 4-6 days post-editing.
ddPCR analysis of targeted integration. Gene targeting efficiency for the knock-in of multi-kb sequences was measured through digital droplet PCR (ddPCR) analysis. […] After PCR, the droplets were analyzed using the QX200 Droplet Digital PCR reader (Biorad) and Quantasoft software was used to determine the number of copies of the target and reference DNA in the droplets. The allelic gene targeting efficiency was calculated as the percentage of target DNA copies relative to that of the reference. […]
(§1) ICE analysis for quantification of gene editing. […] Following PCR, the amplicons were detected on agarose gel and purified from the gel using GeneJet Gel Extraction Kit (Thermo Fisher Scientific, cat: K0692). […]

CCR5 locus in HSPCs = assay: RNP/AAV6 gene targeting at CCR5 locus in CD34+ HSPCs; format: cell-based, human; conditions: two stop codons; sg1 and sg4
Experimental: ddPCR analysis of targeted integration. Gene targeting efficiency for the knock-in of multi-kb sequences was measured through digital droplet PCR (ddPCR) analysis. For this, genomic DNA was extracted from cells using the QuickExtract™ DNA Extraction Solution (QE) (Lucigen, Cat: QE09050). Pellets of 100,000 to 200,000 cells were resuspended in 40 to 50 μl of QE solution. This cell suspension was incubated at 65° C. for 6 mins and then 100° C. for 10 mins. The quick extracted genomic DNA was digested with either BamHI-HF or HindIII-HF (NEB) enzymes at 37° C. for 1 to 2 hours. […] 40 μl of the generated droplet sample was used for the PCR with the following cycle: 95° C. for 10 mins, 50 cycles of 94° C. for 30 secs, 60° C. for 30 secs and 72° C. for 2 mins and 98° C. for 10 mins. After PCR, the droplets were analyzed using the QX200 Droplet Digital PCR reader (Biorad) and Quantasoft software was used to determine the number of copies of the target and reference DNA in the droplets. The allelic gene targeting efficiency was calculated as the percentage of target DNA copies relative to that of the reference. […]
as §1

Cc1cc2ncnn2cc1Nc1ncc2c(n1)n(C1CCOCC1)c(=O)n2C [AZD7648, 7-methyl-2-((7-methyl-[1,2,4]triazolo[l,5-a]pyridin-6-yl)amino)-9-(tetrahydro-2H-pyran-4-yl)-7,9-dihydro-8H-purin-8-one]
improvement of frequency of gene targeted cells [1]: more than 2.5 fold
INDELs after gene targeting (HBB locus in HSPCs; AAV6 donor, 0.5 μM): almost no INDELs; also recorded: nearly INDEL-free levels
gene targeting frequency (HBB locus in HSPCs; ssODN donor […], AZD7648 0.5 μM, untreated 49%): 65%
viable cell count vs mock cells (HSPCs [2]): only a small drop in viable cell count
total colony number and colony type distribution (HSPCs [3]; 0.5 μM): did not cause further decrease in total colony number nor a change in the colony type distribution
increase of colonies with bi-allelic HDR knock-in (HSPCs [3]; BFU-E and CFU-GM, 0.5 μM): more than 7 fold
colonies with bi-allelic HDR knock-in (HSPCs [3]; BFU-E): 67%
colonies with bi-allelic HDR knock-in (HSPCs [3]; CFU-GM): 78%
phosphorylation of AKT (Ser473) (PI3K family of kinases): did not affect the phosphorylation of AKT
effect on gene targeting vs untreated (HBA1 locus in PSCs): enhanced the gene targeting significantly
INDELs after gene targeting (CCR5 locus in HSPCs): INDEL-free HDR
